Consider four molecules from US20110098177A1, “METHODS AND COMPOSITIONS OF PLANT MICRONUTRIENTS” (NOVUS INTERNATIONAL INC., priority 2006, published 2011).

Where two headings read alike, the source gives them in different places.

Holding throughout (assay type): in vivo
One series deals with Florida-47 tomato. Briefly: Foliar nutrient concentration at 6 WAT, greenhouse Fall 2007, tomato. Particulars: Example 2; crop not specified (tomato / bell pepper). Here is the method: The following experiments were performed in a green house during the fall of 2007 at GCREC, Balm, University of Florida. Fifteen products, at 3 different application rates were examined. The plot size was 2-gallon pots. Crop set-up, procedures and variables were as follows.
Transplants of ‘Florida-47’ tomato and ‘Aristotle’ bell pepper plants in the 4-true leaf stage (about 6 inches tall) were planted in 2-gal pots on Aug. 27, 2007. Pots were filled with a commercially available planting medium. This medium was selected based on the mineral composition of the products to be applied without providing significant nutritional inputs to the crops. Irrigation was provided with drip lines delivering between 0.50 and 0.33 gal/day/pot for tomato and bell pepper, respectively, and the crops were irrigated three times per day. No foliar pesticides were necessary. […]
Medium nutrient concentration was determined 1 week before treatment. […] The foliar tissue analysis was performed at 6 WAT and the concentration of N, P, K, Mg, Ca, S, B, Zn, Mn, Fe, and Cu was determined by a commercial laboratory. Plant toxicity was determined at 4 WAT by using a 0-10 visual scale, where 0=no visible damage and 10=total plant death. […]
Data were analyzed using a general linear model, and means were separated using orthogonal contrasts at the 5% significance level.

For a further series, the system named is Tygress tomato plants. Particulars: for Toxicity (0-10): 0=no injury, 10=plant death. The procedure, abridged:
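Greenhouse 'Tygress' tomatoes in micronutrient-deficient medium received foliar micronutrient treatments at 6 weeks after transplanting, 200 mL/plant in deionized water with non-ionic surfactant. Foliar injury rated visually 0 (none) to 10 (plant death); randomized complete block, 6 replications, LSD at 5%.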

For series [1], the system named is soybean plants (Asgrow 1102). The series can be described thus: ICP-MS micronutrient content of soybean trifoliates (Examples 11-12). Details: Micronutrient content from ICP-MS analysis: Mn: unit not given here. As to conditions: for Micronutrient content from ICP-MS analysis: Fe: in ppm (unit assumed). How it is done:
The following experiments were performed on soybean plants growing in open-field plots during the summer and fall of 2008 at two production fields in West Central Minnesota. […] Trial design was a randomized complete block with 4 replications. Each plot measured 10' by 30' and consisted of five 22'' rows. Although all five rows of each plot were treated, only the center three rows (25' in length) of each plot were machine harvested. The two fields selected for these studies had historical Iron Deficiency Chlorosis (IDC) issues. The two field sites were planted by farmers with elite Roundup Ready commodity type soybean varieties with IDC tolerance (Asgrow 1102, Monsanto Corp.). […] BIOX-M was applied at a rate of 1.12 kg Mn/ha. […] All V4 treatments were applied in 10 gallons per acre of water with a backpack sprayer with a hand boom designed to “band” apply product directly to the plant row. Three nozzles with ConeJet TXVS-2 tips were oriented on either side and over the top of each row. This maximized the applied product to the plant tissue itself and minimized application of product to the soil surface. […] The V6 treatments (where applicable) were applied in 20 gallons per acre of water to increase the suspension of the BIOX products. […] The harvested plants were dried, ground, and subjected to Inductively Coupled Plasma-Mass Spectrometry (ICP-MS) analysis to determine plant micronutrient content.

With `CSCCC(O)C(=O)[O-].CSCCC(O)C(=O)[O-].[Cu+2]` (stereo not shown) [BIOX-Cu, Cu-HMTBA], in the series with Florida-47 tomato, the “Foliar Cu relative to the non-Cu control” value is recorded as “about 4 times”. Also, the “Toxicity compared to non-treated control plants, statement” value in the series on Tygress tomato plants (BIOX-Cu at 0.46 and 0.55 lb/acre, Cu-sulfate at 0.8 lb/acre, BIOX-EDC at 0.4 lb/acre) was “increased levels of toxicity”. For the same molecule, the “Toxicity (0-10)” value with Tygress tomato plants (Cu 0.14 lb/acre) was 0; in the series on Tygress tomato plants (Cu 0.28 lb/acre), 1; in the series on Tygress tomato plants (Cu 0.46 lb/acre), 5; in the series on Tygress tomato plants (Cu 0.55 lb/acre), 6. For the same molecule, the “Toxicity, statement” value in the series with Tygress tomato plants (the two low levels of BIOX-Cu (0.14 and 0.28 lb/acre)) is “no toxic effects”.

Consider `CSCCC(O)C(=O)[O-].CSCCC(O)C(=O)[O-].[Zn+2]` (stereo not shown) [BIOX-Z, Zn-HMTBA], for which the “Foliar Zn concentration relative to the non-Zn control” value in the series on Florida-47 tomato was “approximately 3 times”.

Take `CSCCC(O)C(=O)[O-].CSCCC(O)C(=O)[O-].[Mn+2]` (stereo not shown) [BIOX-M, Mn-HMTBA]: in series [1] (7.0 kg/ha, V4, Foxhome), the “Micronutrient content from ICP-MS analysis: Mn” value (from here on “Micronutrient content … Mn”) was found to be 78.31 and the “Micronutrient content from ICP-MS analysis: Fe” value (from here on “Micronutrient content … Fe”) stood at 90.52. For the same molecule, in series [1] (7.0 kg/ha, V4, Renville), the “Micronutrient content … Mn” value is reported as 88.64 and the “Micronutrient content … Fe” value is on record as 99.40.

With Fe-HMTBA [BIOX-Fe], the “Micronutrient content … Mn” value in series [1] (0.558 kg/ha, V4, V6, Foxhome) is reported as 76.21; in series [1] (0.558 kg/ha, V4, V6, Renville), 96.44; in series [1] (0.558 kg/ha, V4, Foxhome), 81.82; in series [1] (0.558 kg/ha, V4, Renville), 88.29; in series [1] (1.12 kg/ha, V4, V6, Foxhome) it was 87.67; in series [1] (1.12 kg/ha, V4, V6, Renville), 89.00. The “Micronutrient content … Mn” value in series [1] (1.12 kg/ha, V4, Foxhome) was determined as 72.70; in series [1] (1.12 kg/ha, V4, Renville), 76.15. The “Micronutrient content … Fe” value is on record as 88.30 in series [1] (0.558 kg/ha, V4, V6, Foxhome); 96.26 in series [1] (0.558 kg/ha, V4, V6, Renville); 83.38 in series [1] (0.558 kg/ha, V4, Foxhome); 98.39 in series [1] (0.558 kg/ha, V4, Renville); 83.35 in series [1] (1.12 kg/ha, V4, V6, Foxhome); 98.74 in series [1] (1.12 kg/ha, V4, V6, Renville). In addition, the “Micronutrient content … Fe” value amounted to 84.93 in series [1] (1.12 kg/ha, V4, Foxhome) and 97.42 in series [1] (1.12 kg/ha, V4, Renville). Also, the “Toxicity (0-10)” value in the series with Tygress tomato plants (Fe 0.28 lb/acre) was found to be 0; with Tygress tomato plants (Fe 0.57 lb/acre), 0; in the series with Tygress tomato plants (Fe 1.12 lb/acre), 1; with Tygress tomato plants (Fe 1.74 lb/acre), 1; with Tygress tomato plants (Fe 2.3 lb/acre), 2. Further, the “Toxicity relative to the non-treated control, statement” value in the series on Tygress tomato plants (all levels of BIOX-Fe, Fe-sulfate at 2.0 lb/acre, BIOX-EDF at 0.3 lb/acre) is “no increased toxicity relative to the non-treated control”.
